Measurements reported in patent US20230364172A1, “MODULATION OF SOLUBILITY, PALATABILITY, ABSORPTION, AND BIOAVAILABILITY OF MITRAGYNA SPECIOSA-DERIVED COMPOUNDS FOR ORAL AND BUCCAL DELIVERY” (Syncotrance, LLC, priority 2022, published 2023).
Values joined by “and” are separate entries in the source; they are usually repeats but may differ in a detail not shown here. Equal values may be shown once. Where a name gives a salt, the structure may show the parent alone. Read-outs that look alike come from different tables or passages of the source.

How the values were obtained:
[1] = 1% w/v, 0.1 mM quinine hydrochloride solution; cited from earlier work
[2] = Premix vs water for taste masking of sports nutrition active ingredients (Example M); conditions: 1.5 g dose in Premix
Experimental: The supplements were suspended in a premix or water for reference. The active ingredients and their dosages were selected to simulate a sports nutrition drink prepared in a small blender (200 ml volume).
The panelists were asked to rate aversiveness/palatability and provide a brief description of off-flavors.

[3] = cited from earlier work
[4] = Phase separation of Kratom/Premix emulsion by visual observation (Example C)
[5] = Physicochemical properties of mitragynine (pKa, Log P, aqueous solubility), literature
Text: Mitragynine is an indole alkaloid comprising 66% of total alkaloids in extracts of Mitragyna speciosa leaves (Adkins, J. E., Boyer, E. W., McCurdy, C. R., 2011. Mitragyna speciosa, a psychoactive tree from Southeast Asia with opioid activity. Curr. Top. Med. Chem. 11, 1165-1175) (Ponglux, D., Wongseripipatana, S., Takayama, H., Kikuchi, M., Kurihara, M., Kitajima, M., Aimi, N., Sakai, S., 1994. A new indole alkaloid, 7 alpha-Hydroxy-7H-mitragynine, from Mitragyna speciosa in Thailand. Planta Med. 60, 580-581.). […] The compound is moderately stable at neutral pH (^˜3.5% degradation after 3 h) but degraded at pH 1.2 (by 26% degradation after 1-2 hr) (Manda, V. K., Avula, B., Ali, Z., Khan, I. A., Walker, L. A., Khan, S. I., 2014. Evaluation of in vitro absorption, distribution, metabolism, and excretion (ADME) properties of mitragynine, 7-hydroxymitragynine, and mitraphylline. Planta Med. 80, 568-576) (Ramanathan, S., Parthasarathy, S., Murugaiyah, V., Magosso, E., Tan, S. C., Mansor, S. M., 2015. Understanding the physicochemical properties of mitragynine, a principal alkaloid of Mitragyna speciosa, for preclinical evaluation. Molecules 20, 4915-4927). […]

[6] = cited from earlier work; remark: listed apart in the source
[7] = cited from earlier work; remark: listed apart in the source
[8] = rats; cited from earlier work

phosphatidic acid
bitterness-depressing effect due to adsorption [1]: 36.1% | bitterness-depressing effect due to suppression at the receptor site [1]: 45.6% | suppression of bitterness [1]: 81.7%

NCC(=O)[O-].NCC(=O)[O-].[Mg+2] [Magnesium Glycinate]
pH in Premix [2]: flavors. pH 10.3 caused

CC[C@@H]1CN2CCc3c([nH]c4cccc(OC)c34)[C@H]2C[C@@H]1/C(=C\OC)C(=O)OC (stereo in doubt) [mitragynine hydrochloride]
absolute oral bioavailability of mitragynine ([3]; rats, oral in comparison to intravenous administration): 17.0%

Polysorbate 80
phase separation ([4]; Polysorbate 80 0.3% w/v final, added to Final Mix): separated | phase separation ([4]; Polysorbate 80 0.3% w/v final, added to liquid extract): separated | phase separation ([4]; Polysorbate 80 0.3% w/v final, added to premix): separated | phase separation ([4]; Polysorbate 80 0.5% w/v final, added to Final Mix): separated | phase separation ([4]; Polysorbate 80 0.5% w/v final, added to liquid extract): stable | phase separation ([4]; Polysorbate 80 0.5% w/v final, added to premix): separated | phase separation ([4]; Polysorbate 80 1% w/v final, added to Final Mix): separated | phase separation ([4]; Polysorbate 80 1% w/v final, added to liquid extract): stable | phase separation ([4]; Polysorbate 80 1% w/v final, added to premix): stable | phase separation ([4]; Polysorbate 80 1.5% w/v final, added to Final Mix): stable | phase separation ([4]; Polysorbate 80 1.5% w/v final, added to liquid extract): stable | phase separation ([4]; Polysorbate 80 1.5% w/v final, added to premix): stable

CC[C@@H]1CN2CCc3c([nH]c4cccc(OC)c34)[C@@H]2C[C@@H]1/C(=C\OC)C(=O)OC [Mitragynine]
Biopharmaceutical Classification System (BCS) class [5]: Class II | pKa [6]: 8.1 | solubility in aqueous media ([6]; pH 4): 130 μM and 51.8 μg/ml | solubility in a saliva type fluid ([6]; pH 6.5): 64.6±1.2 μcg/mL | solubility in aqueous media ([6]; pH 7): 83 μM and 33.1 μg/ml | degradation ([7]; neutral pH, after 3 h): ~3.5% | degradation ([7]; pH 1.2, after 1-2 hr): 26% | % AUCbrain/AUCplasma [8]: 65.8±4.5% | bioavailability ([3]; oral administration in rats, calculated from other studies by Ya et al.): ~21%
